Measured values reported in US20080132569A1, “Antifungal Compositions for Inhibiting Growth of Wood Decay Fungi and Use Thereof” (priority 2006, published 2008).
≈ marks a conversion by molar mass, not a printed value. Where “and” joins values, the source holds several entries; their conditions need not be identical. Equal entries are not always repeated. Where two headings read alike, the source gives them in different places. Marks after values point to notes of the source that are not given here.

How the values were obtained:
[1] = Antifungal assay, mycelium growth on PDA containing the chemical
[2] = as above; conditions: for Antifungal index: 50 μg/ml
[3] = as above; conditions: G. trabeum; for Antifungal index (%): Table 1
[4] = Antifungal activity on paper (CNS 2690, TAPPI T487 cm-93); conditions: A. niger, 14 days
[5] = as above; conditions: A. terreus, 14 days
[6] = as above; conditions: C. globosum, 14 days
[7] = Antifungal assay, mycelium growth on PDA containing the chemical; conditions: T. versicolor; for Antifungal index (%): Table 1
[8] = MIC and MFC determination on PDA; conditions: L. betulina
[9] = MIC and MFC determination on PDA; conditions: L. sulphureus
[10] = L. sulphureus, 100 μg/ml, Table 1
[11] = L. betulina, 100 μg/ml, Table 1
[12] = L. sulphureus, 100 μg/ml, Table 4, mean ± SE (n = 5)
[13] = L. sulphureus, Table 5, mean ± SE (n = 5), combinations at 1:1 ratio in molarities
[14] = L. sulphureus, Table 5, mean ± SE (n = 5), combinations at 1:1 ratio in molarities, read-out: IC50
[15] = L. betulina, 100 μg/ml, Table 4, mean ± SE (n = 5)
[16] = L. betulina, Table 5, mean ± SE (n = 5), combinations at 1:1 ratio in molarities
[17] = L. betulina, Table 5, mean ± SE (n = 5), combinations at 1:1 ratio in molarities, read-out: IC50
[18] = L. sulphureus, single compound at 0.17 mM
[19] = Example 1, FIG. 1(A), read-out: IC50 (concentration that inhibited 50% of the mycelium growth)

## O=C(O)CN(CCN(CC(=O)O)CC(=O)O)CC(=O)O [EDTA, diaminoethanetetraacetic acid]
[1]; Laetiporus sulphureus, 50 μg/ml, Example 5
  Antifungal index: 10%
[2]; Lenzites betulina, Example 5
  Antifungal index: 90%

## CCCOC(=O)c1cc(O)c(O)c(O)c1 [Propyl gallate, propyl gallate]
[1]; [10]
  Antifungal index (%): 0 ± 0%
[3]; 100 μg/ml
  Antifungal index (%): 2 ± 0.6%
[4]; 100 μg/cm^2 on filter paper
  Percent inhibition ratio: 0 ± 0%
[4]; 400 μg/cm^2 on filter paper
  Percent inhibition ratio: 0 ± 0%
[2]; [11]
  Antifungal index (%): 1 ± 1.9%
[5]; 100 μg/cm^2 on filter paper
  Percent inhibition ratio: 0 ± 0%
[5]; 400 μg/cm^2 on filter paper
  Percent inhibition ratio: 0 ± 0%
[6]; 100 μg/cm^2 on filter paper
  Percent inhibition ratio: 0 ± 0%
[6]; 100 μg/cm^2 on filter paper, listed as propyl gallate
  Percent inhibition ratio: did not show any antifungal activity
[6]; 400 μg/cm^2 on filter paper
  Percent inhibition ratio: 100 ± 0%
[6]; 400 μg/cm^2 on filter paper, listed as propyl gallate
  Percent inhibition ratio: 100%
[7]; 100 μg/ml
  Antifungal index (%): 0 ± 0%

## O=c1c(O)c(-c2ccc(O)c(O)c2)oc2cc(O)cc(O)c12 [Quercetin, quercetin]
[1]; [12]
  Antifungal index (%): 0 ± 0.0^c %
[1]; L. sulphureus, 100 μg/ml, Table 4, mean ± SE (n = 5), listed as quercetin
  Antifungal index (%): did not express antifungal activities
[1]; [13]
  IC90: > 100000 µM
[1]; [14]
  IC50: 64000 ± 250 µM
[2]; [15]
  Antifungal index (%): 0 ± 0.0^b %
[2]; L. betulina, 100 μg/ml, Table 4, mean ± SE (n = 5), listed as quercetin
  Antifungal index (%): did not express antifungal activities
[2]; [16]
  IC90: > 100000 µM
[2]; [17]
  IC50: > 100000 µM

## Cc1cc(C(C)(C)C)c(O)c(C(C)(C)C)c1 [BHT, Butylated hydroxyltoluene, reference compound]
[1]; [10]
  Antifungal index (%): 21 ± 5.6%
[3]; 100 μg/ml
  Antifungal index (%): 0 ± 0%
[2]; [11]
  Antifungal index (%): 16 ± 3.4%
[7]; 100 μg/ml
  Antifungal index (%): 23 ± 2.6%

## catechin
[1]; [12]
  Antifungal index (%): 5 ± 1.8^b %
[1]; L. sulphureus, 100 μg/ml, Table 4, mean ± SE (n = 5), listed as catechin
  Antifungal index (%): did not express antifungal activities
[1]; [13]
  IC90: 80000 ± 140 µM
[1]; [14]
  IC50: 40000 ± 120 µM
[2]; [15]
  Antifungal index (%): 3 ± 1.5^b %
[2]; L. betulina, 100 μg/ml, Table 4, mean ± SE (n = 5), listed as catechin
  Antifungal index (%): did not express antifungal activities
[2]; [16]
  IC90: > 100000 µM
[2]; [17]
  IC50: > 100000 µM

## C=CCc1ccc(O)c(OC)c1 [Eugenol, eugenol]
[8]
  MFC: 700 µM (≈ 115 µg/mL)
  MIC: 700 µM (≈ 115 µg/mL)
[1]; [12]
  Antifungal index (%): 100 ± 0.0^a %
[1]; L. sulphureus, 100 μg/ml, Table 4, mean ± SE (n = 5), listed as eugenol
  Antifungal index (%): 100%
[1]; [13]
  IC90: 520 ± 10 µM
[1]; [14]
  IC50: 250 µM
[1]; [18]
  Antifungal index: 24%
[2]; [15]
  Antifungal index (%): 100 ± 0.0^a %
[2]; L. betulina, 100 μg/ml, Table 4, mean ± SE (n = 5), listed as eugenol
  Antifungal index (%): 100%
[2]; [16]
  IC90: 650 ± 50 µM
[2]; [17]
  IC50: 370 µM
[9]
  MFC: 650 µM (≈ 107 µg/mL)
  MIC: 650 µM (≈ 107 µg/mL)

## O=CC=Cc1ccccc1 [Cinnamaldehyde, cinnamaldehyde]
[8]
  MFC: 750 µM (≈ 99.1 µg/mL)
  MIC: 750 µM (≈ 99.1 µg/mL)
[1]; [10]
  Antifungal index (%): 100 ± 0%
[1]; [12]
  Antifungal index (%): 100% and 100 ± 0.0^a %
[1]; L. sulphureus, Example 1, FIG. 1(A), read-out: IC50 (concentration that inhibited 50% of the mycelium growth)
  IC50: 170 µM
[1]; [13]
  IC90: 530 ± 20 µM
[1]; [14]
  IC50: 230 µM
[1]; [18]
  Antifungal index: 41%
[3]; 50 μg/ml, Example 3, FIG. 2(B)
  Antifungal index: 22%
[3]; 100 μg/ml
  Antifungal index (%): 31 ± 0.7%
[3]; [19]
  IC50: 1050 µM
[2]; L. betulina, Example 3, FIG. 2(A)
  Antifungal index: 6%
[2]; [11]
  Antifungal index (%): 100 ± 0%
[2]; [15]
  Antifungal index (%): 100% and 100 ± 0.0^a %
[2]; L. betulina, Example 1, FIG. 1(A), read-out: IC50 (concentration that inhibited 50% of the mycelium growth)
  IC50: 650 µM
[2]; [16]
  IC90: 720 ± 60 µM
[2]; [17]
  IC50: 650 µM
[7]; 100 μg/ml
  Antifungal index (%): 34 ± 2.2%
[7]; [19]
  IC50: 1110 µM
[9]
  MFC: 700 µM (≈ 92.5 µg/mL)
  MIC: 700 µM (≈ 92.5 µg/mL)

## CCCC1COC(Cn2cncn2)(c2ccc(Cl)cc2Cl)O1 (stereo not drawn) [Propiconazole, propiconazole]
[1]; L. sulphureus, 1 μg/ml (propiconazole), Table 1
  Antifungal index (%): 100 ± 0%
[1]; L. sulphureus, 1 μg/ml (propiconazole), Table 1, listed as propiconazole
  Antifungal index (%): 100%
[1]; L. sulphureus, 1 μg/ml (propiconazole), Table 4, mean ± SE (n = 5)
  Antifungal index (%): 100 ± 0.0^a %
[1]; L. sulphureus, 1 μg/ml (propiconazole), Table 4, mean ± SE (n = 5), listed as propiconazole
  Antifungal index (%): completely inhibited
[3]; 1 μg/ml (propiconazole)
  Antifungal index (%): 52 ± 3.7%
[2]; L. betulina, 1 μg/ml (propiconazole), Table 1
  Antifungal index (%): 100 ± 0%
[2]; L. betulina, 1 μg/ml (propiconazole), Table 1, listed as propiconazole
  Antifungal index (%): 100%
[2]; L. betulina, 1 μg/ml (propiconazole), Table 4, mean ± SE (n = 5)
  Antifungal index (%): 100 ± 0.0^a %
[2]; L. betulina, 1 μg/ml (propiconazole), Table 4, mean ± SE (n = 5), listed as propiconazole
  Antifungal index (%): completely inhibited
[7]; 1 μg/ml (propiconazole)
  Antifungal index (%): 92 ± 0.6%
